≈ marks a conversion by molar mass, not a printed value. Read-outs that look alike come from different tables or passages of the source.
Tests used:
[1] = tested on: Methicillin resistant S. aureus IBRS MRSA 011; assay: Antimicrobial microdilution assay (MIC/MBC); assay type: cell-based, Staphylococcus aureus; settings: Staphylococcus aureus, MRSA
Summary of the method: (§1)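 Broth microdilution: 0.5 McFarland suspensions, diluted twenty-fold, were mixed 1:10 with polyphenol dilutions (0.0039–1 mg/mL) and incubated 24 h at 37 °C.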

[2] = tested on: P. aeruginosa IBRS P001; assay: Antimicrobial microdilution assay (MIC/MBC); assay type: cell-based, Pseudomonas aeruginosa; settings: Pseudomonas aeruginosa, IBRSP001; for MIC: read-out: MIC
Summary of the method: as §1

[3] = tested on: P. aeruginosa MMA83; assay: Antimicrobial microdilution assay (MIC/MBC); assay type: cell-based, Pseudomonas aeruginosa; settings: Pseudomonas aeruginosa, MMA83
Summary of the method: as §1

[4] = tested on: A. baumannii 6077/12; assay: Antimicrobial microdilution assay (MIC/MBC); assay type: cell-based, Acinetobacter baumannii; settings: Acinetobacter baumannii, 6077/12
Summary of the method: as §1

[5] = tested on: A. baumannii S2/2; assay: Antimicrobial microdilution assay (MIC/MBC); assay type: cell-based, Acinetobacter baumannii; settings: Acinetobacter baumannii, S2/2
Summary of the method: as §1

[6] = tested on: K. pneumoniae IT977; assay: Antimicrobial microdilution assay (MIC/MBC); assay type: cell-based, Klebsiella pneumoniae; settings: Klebsiella pneumoniae, IT977
Summary of the method: as §1

[7] = tested on: K. pneumoniae Ni9; assay: Antimicrobial microdilution assay (MIC/MBC); assay type: cell-based, Klebsiella pneumoniae; settings: Klebsiella pneumoniae, NI9
Summary of the method: as §1

[8] = tested on: A. xylosoxidans 37F; assay: Antimicrobial microdilution assay (MIC/MBC); assay type: cell-based, Achromobacter xylosoxidans; settings: Achromobacter xylosoxidans, 37F
Summary of the method: as §1

[9] = tested on: P. aeruginosa IBRS P001 biofilm; assay: Crystal violet antibiofilm assay (biofilm formation); assay type: cell-based, Pseudomonas aeruginosa; settings: 24 h
Summary of the method: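 After incubation, biofilms were washed with PBS (pH 7.4), methanol-fixed and stained 30 min with 0.1% crystal violet. Stain was solubilised in 96% ethanol and read at 620 nm. Values are biofilm-forming capacity (%) relative to control.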

[10] = tested on: MRSA IBRS MRSA 011; assay: Catheter biofilm inhibition model; assay type: cell-based, Staphylococcus aureus; settings: even in the sub-MIC concentration, 24 h
Description: The method was performed as described previously, with some modifications. Sterile silicon 16-mm Romed catheters (Van Oostveen Medical, Wilnis, The Netherlands) were cut into 1 cm lengths and placed in 24-well plates (Sarstedt, Nümbrecht, Germany). P. aeruginosa IBRS P001 and MRSA in TSB with 2% glucose (Torlak, Belgrade, Serbia) and rutin (0.25–1 MIC) were added for the inhibition assay. After incubation (37 °C, 24 h), the catheters were washed with PBS and transferred to 1.5 mL tubes. PBS was added and tubes were vortexed vigorously. The samples were diluted and seeded onto Plate Count Agar (HiMedia Laboratories, Mumbai, India). After being incubated at 37 °C for 24 h, the CFU (colony forming units) count was determined and the inhibition percentage relative to the untreated control was calculated.

[11] = tested on: MRSA IBRS MRSA 011; assay: Bacterial adhesion to HaCaT cells; assay type: cell-based, Staphylococcus aureus
Description: HaCaT cells were grown until confluence in 24-well plates with an adhesive bottom. The medium was removed and DMEM without FBS containing the rutin (MIC and 0.5 MIC) was added. The samples were incubated at 37 °C for 15 min, and bacteria (P. aeruginosa IBRS P001 and MRSA IBRS MRSA 011) were added. After incubation at 37 °C for 1 h, the cells were washed three times with DMEM without FBS and lyzed with 1 mL of 1% (v/v) Tween-20 (SigmaAldrich, Germany) at 37 °C for 30 min. Afterwards, dilutions of the bacterial suspension in each well were made and seeded on Plate Count Agar plates. The number of CFU was determined after incubation at 37 °C for 18 h, and the percentage of adhered bacterial cells was calculated following the equation:% (adhesion relative to the control) = 100 × CFU (treated)/CFU (control)
With CFU (treated) representing the number of CFUs after the treatment of cells with rutin and CFU (control) representing the number of bacterial CFUs in the untreated sample. The solvent treated sample was used as the control.

[12] = tested on: P. aeruginosa IBRS P001 rhamnolipid production; assay: Rhamnolipid assay; assay type: cell-based, Pseudomonas aeruginosa; settings: 0.25 mg/mL (0.5 MIC), compared to the control
Description: Culture supernatants of the previously cultivated P. aeruginosa IBRS P001 strain incubated with rutin 0.250 mg/mL were acidified by using HCl to pH 2.0 [72]. Rhamnolipid production was measured spectrophotometrically at 570 nm by a Plate Reader Infinite 200 pro (MTX Lab Systems, Vienna, VA, USA). A solvent treated culture supernatant was used as a positive control.

[13] = tested on: multiple drug resistant P. aeruginosa; design: method as in doi:10.1016/j.foodcont.2018.02.044; settings: cited from earlier work
[14] = subcultivation, 24 h at 37 °C, read-out: MBC

## C[C@@H]1O[C@@H](OC[C@H]2O[C@@H](Oc3c(-c4ccc(O)c(O)c4)oc4cc(O)cc(O)c4c3=O)[C@H](O)[C@@H](O)[C@@H]2O)[C@H](O)[C@H](O)[C@H]1O [Rutin, rutin]
[1]; 37 °C, 24 h, read-out: MIC
  MIC: 500 mg/L (≈ 819 µM)
[1]; [14]
  MBC: 1000 mg/L (≈ 1640 µM)
[2]; 37 °C, 24 h
  MIC: 500 mg/L (≈ 819 µM)
[2]; restated in the discussion
  MIC: 500 mg/L (≈ 819 µM)
[2]; [14]
  MBC: 1000 mg/L (≈ 1640 µM)
[3]; 37 °C, 24 h, read-out: MIC
  MIC: 500 mg/L (≈ 819 µM)
[3]; [14]
  MBC: 500 mg/L (≈ 819 µM)
[4]; 37 °C, 24 h, read-out: MIC
  MIC: 500 mg/L (≈ 819 µM)
[4]; [14]
  MBC: 500 mg/L (≈ 819 µM)
[5]; 37 °C, 24 h, read-out: MIC
  MIC: 500 mg/L (≈ 819 µM)
[5]; [14]
  MBC: 500 mg/L (≈ 819 µM)
[6]; 37 °C, 24 h, read-out: MIC
  MIC: 1000 mg/L (≈ 1640 µM)
[6]; [14]
  MBC: 1000 mg/L (≈ 1640 µM)
[7]; 37 °C, 24 h, read-out: MIC
  MIC: 1000 mg/L (≈ 1640 µM)
[7]; [14]
  MBC: 1000 mg/L (≈ 1640 µM)
[8]; 37 °C, 24 h, read-out: MIC
  MIC: 500 mg/L (≈ 819 µM)
[8]; [14]
  MBC: 1000 mg/L (≈ 1640 µM)
[9]; MIC and sub-MIC, crystal violet, Figure 1
  reduction of biofilm formation (biomass), in words: significant (****, p < 0.0001) reduction
[9]; MIC, 500 µg/mL
  biofilm biomass formed after treatment: 6%
[9]; Pseudomonas aeruginosa, IBRSP001BIOFILM, 500 µg/mL (MIC)
  inhibition at 500 µg/mL: 94%
[10]
  catheter biofilm forming ability, in words: significantly reduced
[11]; Staphylococcus aureus, MRSA, Keratinocyte, read-out: reduction of CFU adhered to human keratinocytes (inhibition)
  inhibition at 250 µg/mL: 19%
[11]; rutin MIC
  reduction of CFU adhered to human keratinocytes: 63%
[12]
  decrease of rhamnolipid production: 74.4%
[13]
  MIC: 800 mg/L (≈ 1310 µM)

From article PMC8952364, “Polyphenols as Inhibitors of Antibiotic Resistant Bacteria—Mechanisms Underlying Rutin Interference with Bacterial Virulence” (Pharmaceuticals, 2022)
